The subject of experiment [1] is Del19/T790M/C797S EGFR. In words: EGFR degradation HTRF assay in H1975-clone #28 (DTC) cells. It counts as cell-based. Conditions: H1975 # 28 DTC (Del19/T790M/C797S), 16h treatment; for DC50: HTRF; for Dmax (%): maximum percentage of degradation. Put shortly: (§1)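 H1975 clones stably overexpressing mutant EGFR by lentivirus, with endogenous EGFR knocked out by sgRNA and homozygosity confirmed by sequencing, were treated 16 h at 37 °C with compounds in 0.2% DMSO medium, 8 doses from 10 uM in 5-fold dilution. Lysates were read by HTRF (665/620 nm); DC50 came from a four-parameter fit.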
Background: In TR-FRET formats the signal depends on donor and acceptor labels being close together.

Experiment [2] addresses T1, L858R/T790M/C797S EGFR (Homo sapiens, UniProt P00533, C797S/L858R/T790M).
T1 construct: expressed in transfected cells; host or cells: H1975 clone #25 (lentiviral over-expression, endogenous EGFR knocked out by sgRNA)
Briefly: EGFR degradation HTRF assay in H1975-clone #25 (LTC) cells. It counts as cell-based. Conditions: 16h treatment; for DC50: H1975 # 25-LTC (L858R/T790M/C797S), HTRF; for Dmax: NCI-H1975, H1975 # 25-LTC (L858R/T790M/C797S), maximum percentage of degradation. In a few lines:
as §1

T1 sequence (P00533 25-1210 T790M/C797S/L858R): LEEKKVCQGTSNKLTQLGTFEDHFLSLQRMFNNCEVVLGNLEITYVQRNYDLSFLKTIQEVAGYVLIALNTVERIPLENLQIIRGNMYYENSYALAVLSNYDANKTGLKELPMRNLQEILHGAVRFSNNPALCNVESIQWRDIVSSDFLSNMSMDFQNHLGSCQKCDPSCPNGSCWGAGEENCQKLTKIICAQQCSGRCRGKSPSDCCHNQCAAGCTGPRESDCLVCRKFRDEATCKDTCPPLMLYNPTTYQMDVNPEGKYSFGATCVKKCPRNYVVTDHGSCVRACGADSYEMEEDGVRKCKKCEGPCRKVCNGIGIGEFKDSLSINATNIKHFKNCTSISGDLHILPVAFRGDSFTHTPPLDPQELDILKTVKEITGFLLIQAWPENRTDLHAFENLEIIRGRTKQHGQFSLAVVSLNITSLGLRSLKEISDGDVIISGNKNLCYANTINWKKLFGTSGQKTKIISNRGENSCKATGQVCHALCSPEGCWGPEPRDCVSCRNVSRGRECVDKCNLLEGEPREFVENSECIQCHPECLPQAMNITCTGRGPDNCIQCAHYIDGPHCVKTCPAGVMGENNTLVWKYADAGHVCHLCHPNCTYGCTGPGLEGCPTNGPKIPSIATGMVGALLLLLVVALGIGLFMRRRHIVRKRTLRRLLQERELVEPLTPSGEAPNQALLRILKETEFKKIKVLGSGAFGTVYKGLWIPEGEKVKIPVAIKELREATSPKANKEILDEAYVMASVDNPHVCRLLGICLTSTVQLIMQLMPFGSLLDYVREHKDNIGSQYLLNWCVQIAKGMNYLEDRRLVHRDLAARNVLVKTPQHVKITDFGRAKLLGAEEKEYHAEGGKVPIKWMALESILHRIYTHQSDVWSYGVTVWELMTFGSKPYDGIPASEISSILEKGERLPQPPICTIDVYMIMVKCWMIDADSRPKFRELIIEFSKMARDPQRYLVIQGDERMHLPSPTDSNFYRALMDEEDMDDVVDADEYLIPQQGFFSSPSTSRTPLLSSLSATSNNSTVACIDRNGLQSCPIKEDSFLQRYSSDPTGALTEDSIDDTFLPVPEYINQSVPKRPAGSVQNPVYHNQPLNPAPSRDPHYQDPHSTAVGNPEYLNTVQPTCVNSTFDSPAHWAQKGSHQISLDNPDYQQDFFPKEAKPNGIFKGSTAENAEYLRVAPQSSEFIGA

`CO[C@@H]1CN(CCc2cc(F)c([C@H]3CCC(=O)NC3=O)c(F)c2)CC[C@@H]1NC(=O)c1ccc2c(c1)N1C[C@H](C)CCCOc3c(cnn3C)-c3cc(cc(C)n3)C(=O)/N=C/1N2` [Example 245, (R,E)-N-((3R,4S)-1-(4-((R)-2,6-dioxopiperidin-3-yl)-3,5-difluorophenethyl)-3-methoxypiperidin-4-yl)-1^1,2^5,7-trimethyl-3-oxo-5^2,5^3-dihydro-1^1H,5^1H-11-oxa-4-aza-5(2,1)-benzo[d]imidazola-2(2,4)-pyridina-1(4,5)-pyrazolacycloundecaphane-5^6-carboxamide]: in experiment [1], the half-maximal degradation concentration (DC50) worked out at 0.534 nM and the “Dmax (%)” value worked out at 81.9%. Moreover, in experiment [2], the DC50 stood at 0.487 nM and the Dmax came to 94%.

As for `Cc1cc2cc(n1)-c1cnn(C)c1OCCC[C@@H](C)CN1/C(=N/C2=O)Nc2ccc(N3CCN(C4CCN(c5cc(F)c([C@H]6CCC(=O)NC6=O)c(F)c5)CC4)[C@@H](CC#N)C3)cc21` [Example 452, 2-((S)-1-(1-(4-((R)-2,6-dioxopiperidin-3-yl)-3,5-difluorophenyl)piperidin-4-yl)-4-((R,E)-1^1,2^6,7-trimethyl-3-oxo-5^2,5^3-dihydro-1^1H,5^1H-11-oxa-4-aza-5(2,1)-benzo[d]imidazola-2(2,4)-pyridina-1(4,5)-pyrazolacycloundecaphane-5^6-yl)piperazin-2-yl)acetonitrile], in experiment [1], the 50% degradation concentration (DC50) worked out at 1.29 nM and the “Dmax (%)” value is 75.73%. In experiment [2], this molecule had a DC50 of 0.98 nM and a Dmax of 78.5%.

`Cc1cc2cc(n1)-c1cnn(C)c1OCCC[C@@H](C)CN1/C(=N/C2=O)Nc2ccc(C3CCN(CC4CN(c5cc(F)c([C@H]6CCC(=O)NC6=O)c(F)c5)C4)CC3)cc21` [Example 331, (R)-3-(2,6-difluoro-4-(3-((4-((R,E)-1^1,2^6,7-trimethyl-3-oxo-5^2,53-dihydro-1^1H,5^1H-11-oxa-4-aza-5(2,1)-benzo[d]imidazola-2(2,4)-pyridina-1(4,5)-pyrazolacycloundecaphane-5-yl)piperidin-1-yl)methyl)azetidin-1-yl)phenyl)piperidine-2,6-dione]: in experiment [1], the half-maximal degradation concentration (DC50) worked out at 1.33 nM and the “Dmax (%)” value worked out at 73.69%. In experiment [2], this molecule yielded a DC50 of 0.71 nM and a Dmax of 97.1%.

As to `Cc1cc2cc(n1)-c1cnn(C)c1OCCC[C@@H](C)CN1/C(=N/C2=O)Nc2ccc(CN3CCC4(CC3)CN(C(=O)[C@@H]3CCN(c5cc(F)c([C@H]6CCC(=O)NC6=O)c(F)c5)C3)C4)cc21` [Example 20, (R)-3-(2,6-difluoro-4-((R)-3-(7-(((R,E)-1^1,2^6,7-trimethyl-3-oxo-5^2,5^3-dihydro-1^1H,5^1H-li-oxa-4-aza-5(2,1)-benzo[d]imidazola-2(2,4)-pyridina-1(4,5)-pyrazolacycloundecaphane-5^6-yl)methyl)-2,7-diazaspiro[3.5]nonane-2-carbonyl)pyrrolidin-1-yl)phenyl)piperidine-2,6-dione], in experiment [1], the DC50 amounted to 0.7 nM and the “Dmax (%)” value is reported as 79.0%. In experiment [2], this molecule had a DC50 of 0.9 nM and a Dmax of 89%.

For `Cc1cc2cc(n1)-c1cnn(C)c1OCCCCCN1/C(=N/C2=O)Nc2ccc(C(=O)N(C)C3CCN(CCc4cc(F)c([C@H]5CCC(=O)NC5=O)c(F)c4)CC3)cc21` [Example 238, (R,E)-N-(1-(4-(2,6-dioxopiperidin-3-yl)-3,5-difluorophenethyl)piperidin-4-yl)-N,1^1,2^6-trimethyl-3-oxo-5^2,5^3-dihydro-1^1H,5^1H-11-oxa-4-aza-5(2,1)-benzo[d]imidazola-2(2,4)-pyridina-1(4,5)-pyrazolacycloundecaphane-5^6-carboxamide], in experiment [1], the DC50 worked out at 0.565 nM and the “Dmax (%)” value stood at 83.62%. In experiment [2], this molecule came in with a DC50 of 0.602 nM and a maximal degradation (Dmax) of 93.2%.

In general, DC50 refers to the concentration giving 50% degradation. A high value points to degradation only at high concentration. As usually defined, the Dmax is the greatest extent of degradation seen. Low values mean a partial loss of target, high ones a fuller loss of target.

(Values after patent US20240342292A1, “Compounds for the Degradation of EGFR Kinase” (BeiGene Switzerland GmbH, priority 2021, published 2024).)
